From patent US9000002B2, “N1-substituted-5-fluoro-2-oxopyrimidinone-1(2H)-carboxamide derivatives” (Dow Agrosciences LLC, priority 2009, dated 2015)
Read-outs that look alike come from different tables or passages of the source.

Experiments:
[1] = system: Mycosphaerella graminicola; Anamorph: Septoria tritici; Bayer Code SEPTTR; test: Evaluation of fungicidal activity: leaf blotch of wheat (SEPTTR), wheat plants variety Yuma; format: in vivo; details: Zymoseptoria tritici
Experimental: Evaluation of Fungicidal Activity: Leaf Blotch of Wheat (Mycosphaerella graminicola; Anamorph: Septoria tritici; Bayer Code […]) Wheat plants (variety Yuma) were grown from seed in a greenhouse in 50% mineral soil/50% soil-less Metro mix until the first leaf was fully emerged, with 7-10 seedlings per pot. These plants were inoculated with an aqueous spore suspension of Septoria tritici either prior to or after fungicide treatments. After inoculation the plants were kept in 100% relative humidity (one day in a dark dew chamber followed by two to three days in a lighted dew chamber) to permit spores to germinate and infect the leaf. The plants were then transferred to a greenhouse for disease to develop. The following table presents the activity of typical compounds of the present disclosure when evaluated in these experiments. The effectiveness of the test compounds in controlling disease was determined by assessing the severity of disease on treated plants, then converting the severity to percent control based on the level of disease on untreated, inoculated plants. • In each case of Table II the rating scale is as follows: […]

[2] = 24 h, One-Day Protectant (1DP), 100 ppm, wheat plants, percent control vs untreated inoculated plants, read-out: SEPTTR 100 PPM 1DP (% Disease Control rating)
[3] = 72 h, Three-Day Curative (3DC), 100 ppm, wheat plants, percent control vs untreated inoculated plants, read-out: SEPTTR 100 PPM 3DC (% Disease Control rating)
[4] = 24 h, read-out: SEPTTR 100 PPM 1DP (% Disease Control rating)
[5] = 72 h, read-out: SEPTTR 100 PPM 3DC (% Disease Control rating)

Row | Structure (SMILES) | pest or weed control at 100 ppm [1, 2] | pest or weed control at 100 ppm [1, 3] | melting point | pest or weed control at 100 ppm [1, 4] | pest or weed control at 100 ppm [1, 5]
1 | CCCNC(=O)n1cc(F)c(/N=C/N(C)C)nc1=O [Compound 1, 4-(dimethylamino-methyleneamino)-5-fluoro-2-oxo-2H-pyrimidine-1-carboxylic acid propylamide] | 76 to 100% | 76 to 100% | 266 to 268 °C |  | 
2 | CCOC(=O)CCNC(=O)n1cc(F)c(/N=C/N(C)C)nc1=O [Compound 2] | 76 to 100% | 76 to 100% | 232 to 236 °C |  | 
3 | CN(C)/C=N/c1nc(=O)n(C(=O)NCc2ccccc2)cc1F [Compound 3, (E)-N-benzyl-4-((dimethylamino)methyleneamino)-5-fluoro-2-oxopyrimidine-1(2H)-carboxamide] | 76 to 100% | 76 to 100% | 147 to 150 °C |  | 
4 | CCCCCNC(=O)n1cc(F)c(N)nc1=O [Compound 4, 4-amino-5-fluoro-2-oxo-N-pentylpyrimidine-1(2H)-carboxamide] | 76 to 100% | 76 to 100% | 289 to 292 °C |  | 
5 | Nc1nc(=O)n(C(=O)NC2CCCC2)cc1F [Compound 5, 4-amino-N-cyclopentyl-5-fluoro-2-oxopyrimidine-1(2H)-carboxamide] | 76 to 100% | 76 to 100% | 294 to 297 °C |  | 
6 | Nc1nc(=O)n(C(=O)Nc2ccccc2)cc1F [Compound 6, 4-amino-5-fluoro-2-oxo-N-phenylpyrimidine-1(2H)-carboxamide] |  |  | 275 to 277 °C (dec.) | 76 to 100% | 76 to 100%
7 | COc1ccccc1NC(=O)n1cc(F)c(N)nc1=O [Compound 7] | 76 to 100% | 76 to 100% | 277 to 280 °C (dec.) |  | 
8 | Nc1nc(=O)n(C(=O)Nc2ccccc2Cl)cc1F [Compound 8] | 76 to 100% | 76 to 100% | 258 to 261 °C |  | 
9 | Cc1ccccc1NC(=O)n1cc(F)c(N)nc1=O [Compound 9] | 76 to 100% | 76 to 100% | 277 to 280 °C (dec.) |  | 
10 | COc1ccc(NC(=O)n2cc(F)c(N)nc2=O)cc1 [Compound 10] | 76 to 100% | 76 to 100% | 252 to 255 °C |  | 
11 | Nc1nc(=O)n(C(=O)Nc2ccc(F)c(Cl)c2)cc1F [Compound 11] | 76 to 100% | 26 to 50% | 251 to 254 °C |  | 
12 | Nc1nc(=O)n(C(=O)Nc2ccc(Cl)cc2)cc1F [Compound 12] | 76 to 100% | 76 to 100% | 261 to 264 °C |  | 
13 | N#Cc1ccc(NC(=O)n2cc(F)c(N)nc2=O)cc1 [Compound 13] | 76 to 100% | 51 to 75% | 254 to 257 °C |  | 
14 | Nc1nc(=O)n(C(=O)Nc2cccc(Cl)c2)cc1F [Compound 14, 4-amino-N-(3-chlorophenyl)-5-fluoro-2-oxopyrimidine-1(2H)-carboxamide] | 76 to 100% | 76 to 100% | 250 to 252 °C |  | 
15 | Cc1ccc(NC(=O)n2cc(F)c(N)nc2=O)cc1 [Compound 15] | 76 to 100% | 76 to 100% | 257 to 260 °C |  | 
16 | COc1cccc(NC(=O)n2cc(F)c(N)nc2=O)c1 [Compound 16] | 76 to 100% | 76 to 100% | 242 to 244 °C |  | 
17 | Nc1nc(=O)n(C(=O)Nc2ccc3ccccc3c2)cc1F [Compound 17] | 76 to 100% | 76 to 100% | 273 to 275 °C |  | 
18 | Cn1ccc2cc(NC(=O)n3cc(F)c(N)nc3=O)ccc21 [Compound 18] | 76 to 100% | 76 to 100% | 268 to 270 °C |  | 
19 | Nc1nc(=O)n(C(=O)Nc2ccc3sccc3c2)cc1F [Compound 19] | 76 to 100% | 76 to 100% | 282 to 284 °C |  | 
20 | Nc1nc(=O)n(C(=O)Nc2ccsc2)cc1F [Compound 20] | 76 to 100% | 76 to 100% | 263 to 265 °C |  | 
21 | Nc1nc(=O)n(C(=O)Nc2ccc(F)cc2)cc1F [Compound 21] | 76 to 100% | 76 to 100% | 257 to 259 °C |  | 
22 | Nc1nc(=O)n(C(=O)NCc2ccccc2F)cc1F [Compound 22] | 76 to 100% | 76 to 100% | 260 to 262 °C |  | 

Row | Structure (SMILES) | pest or weed control at 100 ppm [1, 2] | pest or weed control at 100 ppm [1, 3] | melting point | pest or weed control at 100 ppm [1, 4] | pest or weed control at 100 ppm [1, 5]
23 | CCCNC(=O)n1cc(F)c(N)nc1=O [Compound 23] | 76 to 100% | 76 to 100% | 290 to 293 °C |  | 
24 | CC(C)NC(=O)n1cc(F)c(N)nc1=O [Compound 24] | 76 to 100% | 76 to 100% | 291 to 294 °C |  | 
25 | CCOC(=O)CNC(=O)n1cc(F)c(N)nc1=O [Compound 25] | 76 to 100% | 76 to 100% | 220 to 224 °C |  | 
26 | CSCCNC(=O)n1cc(F)c(N)nc1=O [Compound 26] | 76 to 100% | 76 to 100% | 237 to 239 °C |  | 
27 | COCCCNC(=O)n1cc(F)c(N)nc1=O [Compound 27] | 76 to 100% | 76 to 100% | 295 to 298 °C |  | 
28 | O=C(Nc1ccccc1)n1cc(F)c(NCc2ccccc2F)nc1=O [Compound 28, 5-fluoro-4-(2-fluorobenzylamino)-2-oxo-N-phenylpyrimidine-1(2H)-carboxamide] |  |  | 154 to 157 °C | 0 to 25% | 26 to 50%
29 | O=C(Nc1ccc(F)cc1F)n1cc(F)c(NCc2ccccc2F)nc1=O [Compound 29] | 0 to 25% | 26 to 50% | 150 to 153 °C |  | 
30 | Cc1ccc(NC(=O)n2cc(F)c(NCc3ccccc3F)nc2=O)cc1 [Compound 30] | 0 to 25% | 26 to 50% | 158 to 162 °C |  | 
31 | O=C(Nc1cccc(Cl)c1)n1cc(F)c(NCc2ccccc2F)nc1=O [Compound 31] | 0 to 25% | 0 to 25% | 158 to 160 °C |  | 
32 | CCCNC(=O)n1cc(F)c(NCc2ccccc2F)nc1=O [Compound 32] | 26 to 50% | 51 to 75% | 113 to 116 °C |  | 
33 | CCN(CC)C(=S)n1cc(F)c(/N=C/N(C)C)nc1=O [Compound 33, (E)-4-((dimethylamino)methyleneamino)-N,N-diethyl-5-fluoro-2-oxopyrimidine-1(2H)-carbothioamide] | 0 to 25% | 26 to 50% | 118 to 123 °C |  | 
34 | CN(C(=S)n1cc(F)c(N)nc1=O)c1ccccc1 [Compound 34, 4-amino-5-fluoro-N-methyl-2-oxo-N-phenylpyrimidine-1(2H)-carbothioamide] | 76 to 100% | 76 to 100% | 192 to 196 °C |  | 
35 | CN(C(=S)n1cc(F)c(N)nc1=O)c1cccc(C(F)(F)F)c1 [Compound 35] | 76 to 100% | 76 to 100% | 126 to 131 °C |  | 
36 | CN(C(=S)n1cc(F)c(N)nc1=O)c1cc(Cl)cc(Cl)c1 [Compound 36] | 76 to 100% | 76 to 100% | 200 to 203 °C |  | 
37 | CCN(C(=S)n1cc(F)c(N)nc1=O)c1ccccc1 [Compound 37] | 76 to 100% | 76 to 100% | 223 to 226 °C |  | 
38 | CCNC(=O)n1cc(F)c(NC(C)=O)nc1=O [Compound 38, 4-acetamido-N-ethyl-5-fluoro-2-oxopyrimidine-1(2H)-carboxamide] | 76 to 100% | 76 to 100% | 233 to 235 °C |  | 
39 | CCCNC(=O)n1cc(F)c(NC(C)=O)nc1=O [Compound 39] | 76 to 100% | 76 to 100% | 233 to 235 °C |  | 
40 | CCCNC(=O)n1cc(F)c(NC(=O)c2ccccc2)nc1=O [Compound 40] | 76 to 100% | 76 to 100% | 258 to 260 °C |  | 
41 | CCCNC(=O)n1cc(F)c(NC(=O)C(C)C)nc1=O [Compound 41] | 76 to 100% | 76 to 100% | 226 to 228 °C |  | 
42 | CCCNC(=O)n1cc(F)c(NC(=O)c2ccccc2Cl)nc1=O [Compound 42] | 26 to 50% | 76 to 100% | 239 to 241 °C |  | 
43 | CCCNC(=O)n1cc(F)c(NC(=O)Cc2ccc(OC)cc2)nc1=O [Compound 43] | 76 to 100% | 76 to 100% | 227 to 229 °C |  | 
